In patent US20040204577A1, “Novel peptide-forming enzyme gene” (Ajinomoto Co., Inc., priority 2003, published 2004):
Where a SMILES comes first, the peptide text is derived from it.

Key:
[1] = system: peptide-forming enzyme (Mono S fraction enzyme); experiment: Enzyme inhibitors: effects on the production of L-alanyl-L-glutamine; type: biochemical, Empedobacter brevis; conditions: for Inhibition of the enzyme (in words): serine enzyme inhibitors at 10 mM
[2] = system: enzyme derived from Sphingobacterium sp. strain FERM BP-8124 (SP-Sepharose HP fraction enzyme); experiment: Enzyme substrate specificity (11), (12): peptide production; type: biochemical; set-up: key to Produced peptide (Table 15-1) / Produced peptide (Table 15-3) / Produced peptide (Table 15-4): +: those peptides for which production was confirmed but which were unable to be quantified due to the absence of a standard; a trace amount; conditions: carboxy component 100 mM, amine component 150 mM, 0.33 units enzyme, pH 9.0, 25° C., 1.5 hours; for Produced peptide (Table 15-4): amides and methylamine
Source text: Substrate specificity was examined for enzyme derived from Sphingobacterium sp. strain FERM BP-8124 (Depositary institution: the independent administrative corporation, National Institute of Advanced Industrial Science and Technology, International Patent Organism Depositary, Address of depositary institution: Chuo Dai-6, 1-1 Higashi 1-Chome, Tsukuba-shi, Ibaraki-ken, Japan, International deposit date: […] The amounts of various peptides formed in this reaction are shown in Table 15. The “+” mark indicates those peptides for which production was confirmed but which were unable to be quantified due to the absence of a standard, while “tr” indicates a trace amount. Furthermore, Tween-80 was added to the reaction system to a final concentration of 0.1% in the case of using L-Tyr-OMe. In addition, hydrochloride salts were used for all carboxy components. Substrate specificity with respect to oligopeptide production was examined for enzyme derived from Sphingobacterium sp. strain FERM BP-8124 (Depositary institution: the independent administrative corporation, National Institute of Advanced Industrial Science and Technology, International Patent Organism Depositary, Address of depositary institution: Chuo Dai-6, 1-1 Higashi 1-Chome, Tsukuba-shi, Ibaraki-ken, Japan, International deposit date: […] The amounts of each oligopeptide formed in this reaction are shown in Table 16. Furthermore, hydrochloride salts were used for all the carboxy components.

[3] = system: peptide-forming enzyme (Mono S fraction enzyme); experiment: Enzyme substrate specificity (1)-(10), (13), (14): peptide production; type: biochemical, Empedobacter brevis; conditions: pH 9.0, 25° C., 3 hours; for Formed peptide: L-amino acid 150 mM; for Produced peptide: L-amino acid ester 100 mM, peptide (amine component) 150 mM
Method in brief: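 Mono S enzyme fraction in 100 mM borate buffer (pH 9.0) with 10 mM EDTA and 100 mM carboxy component (amino acid methyl esters or amides); amine components (L-glutamine, amino acids, amino acid amides or methylamine) at 150 mM, or 200 mM L-glutamine with varied esters. Reactions ran at 25° C for 2–3 hours; 0.1% Tween-80 added for Trp/Tyr-OMe.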

[4] = system: microbial cells of Empedobacter brevis strain FERM BP-8113; experiment: Production of peptide using microbial cells; type: cell-based; conditions: 1 mL cell suspension (100 g/L) + 1 mL buffer with 200 mM carboxy component (hydrochloride) and 400 mM amino acid; borate buffer pH 9.0, 10 mM EDTA; 18° C., 2 hours
Description: A 50 mL medium (pH 6.2) containing 5 grams (g) of glucose, 5 g of ammonium sulfate, 1 g of monopotassium phosphate, 3 g of dipotassium phosphate, 0.5 g of magnesium sulfate, 10 g of yeast extract and 10 g of peptone in 1 liter (L) was transferred to a 500 mL Sakaguchi flask and sterilized at 115° C. for 15 minutes. This medium was then inoculated with one loopful cells of Empedobacter brevis strain FERM BP-8113 (Depositary institution: the independent administrative corporation, National Institute of Advanced Industrial Science and Technology, International Patent Organism Depositary, Address of depositary institution: Chuo Dai-6, 1-1 Higashi 1-Chome, Tsukuba-shi, Ibaraki-ken, Japan, International deposit transfer date: Jul. 8, 2002) that had been cultured at 30° C. for 16 hours in the same medium, followed by shake culturing at 30° C. for 16 hours and 120 strokes/min.

[5] = Comparison of ability to catalyze peptide formation with known enzymes; type: biochemical; conditions: for L-Ala-L-Gln production rate: 100 mM L-alanine methyl ester hydrochloride, 200 mM L-glutamine, pH 9.0, 25° C., enzyme added 0.02-3.60 protein mg/ml as in Table 14; for Ratio of L-Ala-L-Gln production rate per enzyme unit weight: enzyme of present invention = 100.0
Source text: The enzyme homogeneously purified in Example 3 was used as a source of the present enzyme of the present invention.

[6] = inhibitor at 10 mM, borate buffer pH 9.0, 25° C., 5 minutes, 100 = absence of enzyme inhibitor
[7] = L-amino acid methyl ester hydrochloride 100 mM
[8] = 100 mM L-alanine methyl ester hydrochloride
[9] = L-amino acid amide hydrochloride as carboxy component 100 mM

For `O=C(O)CN(CCN(CC(=O)O)CC(=O)O)CC(=O)O` [EDTA, ethylene diamine tetraacetic acid], the “Relative activity of L-Ala-L-Gln production” value (“Relative activity” for short) [1, 6] was 96%.

In the case of `NCC(=O)N[C@@H](Cc1cnc[nH]1)C(=O)O` [Gly-L-His] (H-Gly-His-OH), the “Produced peptide (Table 15-3)” value [2] is reported as 36.2 mM, the Formed peptide [3, 7] is reported as 31.6 mM and the Formed peptide [4] is reported as 22.1 mM.

In the case of `C[C@H](N)C(=O)N[C@@H](CCCN=C(N)N)C(=O)O` [L-Ala-L-Arg] (H-Ala-Arg-OH), the “Produced peptide (Table 15-1)” value [2] is reported as 72.2 mM, the Formed peptide [3, 8] is reported as 88.0 mM and the Formed peptide [4] is reported as 72.1 mM.

For `C[C@H](N)C(=O)N[C@@H](Cc1cnc[nH]1)C(=O)O` [L-Ala-L-His] (H-Ala-His-OH), the “Produced peptide (Table 15-4)” value [2] was “tr”, the “Produced peptide (Table 15-1)” value [2] was 73.6 mM and the Formed peptide [3, 8] was 66.9 mM. It also gave a Formed peptide [3, 9] of 3.9 mM and a Formed peptide [4] of 52.1 mM.

With `CC(C)C[C@H](NC(=O)[C@H](C)N)C(=O)O` [L-Ala-L-Leu] (H-Ala-Leu-OH) the “Produced peptide (Table 15-1)” value [2] was 33.0 mM, the Formed peptide [3, 8] was 45.3 mM and the Formed peptide [4] was 38.2 mM.

For `CSCC[C@H](NC(=O)[C@H](C)N)C(=O)O` [L-Ala-L-Met] (H-Ala-Met-OH), the “Produced peptide (Table 15-4)” value [2] was “tr”, the “Produced peptide (Table 15-1)” value [2] was 86.9 mM and the Formed peptide [3, 8] was 83.3 mM. It also gave a Formed peptide [3, 9] of 3.4 mM and a Formed peptide [4] of 68.3 mM.

In the case of `C[C@H](N)C(=O)N[C@@H](Cc1ccccc1)C(=O)O` [L-Ala-L-Phe], the “Produced peptide (Table 15-1)” value [2] is reported as 69.5 mM, the Formed peptide [3, 8] is reported as 74.4 mM and the Formed peptide [4] is reported as 62.4 mM.

For `C[C@H](N)C(=O)N[C@@H](CO)C(=O)O` [L-Ala-L-Ser] (H-Ala-Ser-OH), the “Produced peptide (Table 15-1)” value [2] was 43.8 mM, the Formed peptide [3, 8] was 62.5 mM and the Formed peptide [4] was 51.3 mM.

For `CC[C@H](C)[C@H](N)C(=O)N[C@@H](CCSC)C(=O)O` [L-Ile-L-Met] (H-Ile-Met-OH), the “Produced peptide (Table 15-3)” value [2] was 5.1 mM, the Formed peptide [3, 7] was 10.0 mM and the Formed peptide [4] was 8.3 mM.

For `CSCC[C@H](N)C(=O)N[C@@H](Cc1ccccc1)C(=O)O` [L-Met-L-Phe] (H-Met-Phe-OH), the “Produced peptide (Table 15-3)” value [2] was 8.9 mM and the Formed peptide [4] was 28.5 mM.

In the case of `N[C@@H](CO)C(=O)N[C@@H](CO)C(=O)O` [L-Ser-L-Ser] (H-Ser-Ser-OH), the “Produced peptide (Table 15-3)” value [2] is reported as 9.9 mM, the Formed peptide [3, 7] is reported as 38.0 mM and the Formed peptide [4] is reported as 29.0 mM.

With `CC(C)C[C@H](NC(=O)[C@@H](N)[C@@H](C)O)C(=O)O` [L-Thr-L-Leu] (H-Thr-Leu-OH) the “Produced peptide (Table 15-3)” value [2] was 15.3 mM, the Formed peptide [3, 7] was 28.4 mM and the Formed peptide [4] was 23.0 mM.

In the case of `CSCC[C@H](NC(=O)[C@@H](N)C(C)C)C(=O)O` [L-Val-L-Met] (H-Val-Met-OH), the “Produced peptide (Table 15-3)” value [2] is reported as 6.8 mM, the Formed peptide [3, 7] is reported as 10.3 mM and the Formed peptide [4] is reported as 10.5 mM.

In the case of `O=C(O)CI` [Monoiodoacetate], the “Relative activity” value ([1]; pH 9) is reported as 101%.

With `CCN1C(=O)C=CC1=O` [N-Ethyl maleimide] the “Relative activity” value [1, 6] was 110%.

For `O=S(=O)(F)Cc1ccccc1` [Phenylmethylsulfonyl fluoride, phenylmethylsulfonyl fluoride], the “Relative activity” value [1, 6] was 115% and the “Inhibition of the enzyme (in words)” value [1] was “not inhibited”.

In the case of `c1cnc2c(c1)ccc1cccnc12` [o-Phenanthroline, o-phenanthroline], the “Relative activity” value [1, 6] is reported as 96%.

In the case of `N=C(N)Nc1ccc(C(=O)Oc2ccc([N+](=O)[O-])cc2)cc1` [p-Nitrophenyl-p′-guanidino benzoate, p-nitrophenyl-p′-guanidinobenzoate], the “Relative activity” value [1, 6] is reported as 0.1% and the “Inhibition of the enzyme (in words)” value [1] is reported as “inhibited”.

In the case of Bromelain, the L-Ala-L-Gln production rate [5] is reported as 0.0062 mM/min and the “Ratio of L-Ala-L-Gln production rate per enzyme unit weight” value (“Ratio … per enzyme unit weight” for short) [5] is reported as 0.0010.

In the case of “Chymopapain: thiol endopeptidase described in EP 359399B1, purified enzyme manufactured by Sigma”, the L-Ala-L-Gln production rate [5] is reported as 0.0100 mM/min and the “Ratio … per enzyme unit weight” value [5] is reported as 0.0013.

For Ficin, the L-Ala-L-Gln production rate [5] was 0.0096 mM/min and the “Ratio … per enzyme unit weight” value [5] was 0.0017.

For L-Ala-Gly-Gly, the “Produced peptide (Table 16, oligopeptide)” value [2] was 33.7 mM and the Produced peptide [3] was 41.7 mM.

With L-Ala-Gly-L-Ala the “Produced peptide (Table 16, oligopeptide)” value [2] was 35.1 mM and the Produced peptide [3] was 25.9 mM.

In the case of L-Ala-L-Ala-L-Ala, the “Produced peptide (Table 16, oligopeptide)” value [2] is reported as 41.1 mM and the Produced peptide [3] is reported as 57.5 mM.

With L-Ala-L-Ala-L-Ala-L-Ala the “Produced peptide (Table 16, oligopeptide)” value [2] was 30.1 mM and the Produced peptide [3] was 44.5 mM.

With L-Ala-L-Ala-L-Ala-L-Ala-L-Ala the “Produced peptide (Table 16, oligopeptide)” value [2] was 22.8 mM and the Produced peptide [3] was 34.8 mM.

With L-Ala-L-His-L-Ala the “Produced peptide (Table 16, oligopeptide)” value [2] was 58.0 mM and the Produced peptide [3] was 55.9 mM.

For L-Ala-L-Leu-L-Ala, the “Produced peptide (Table 16, oligopeptide)” value [2] was 40.7 mM and the Produced peptide [3] was 48.3 mM.

For L-Ala-L-Phe-Gly, the “Produced peptide (Table 16, oligopeptide)” value [2] was 34.0 mM and the Produced peptide [3] was 43.7 mM.

In the case of L-Ala-L-Phe-L-Ala, the “Produced peptide (Table 16, oligopeptide)” value [2] is reported as 24.8 mM and the Produced peptide [3] is reported as 49.7 mM.

In the case of L-Thr-Gly-Gly, the “Produced peptide (Table 16, oligopeptide)” value [2] is reported as 8.4 mM and the Produced peptide [3] is reported as 83.0 mM.

B1: Carboxypeptidase Y: known enzyme described in EP 278787A1, purified enzyme manufactured by Sigma (protein, UniProt P00729 112-532, looked up)
Carboxypeptidase Y: KIKDPKILGIDPNVTQYTGYLDVEDEDKHFFFWTFESRNDPAKDPVILWLNGGPGCSSLTGLFFELGPSSIGPDLKPIGNPYSWNSNATVIFLDQPVNVGFSYSGSSGVSNTVAAGKDVYNFLELFFDQFPEYVNKGQDFHIAGESYAGHYIPVFASEILSHKDRNFNLTSVLIGNGLTDPLTQYNYYEPMACGEGGEPSVLPSEECSAMEDSLERCLGLIESCYDSQSVWSCVPATIYCNNAQLAPYQRTGRNVYDIRKDCEGGNLCYPTLQDIDDYLNQDYVKEAVGAEVDHYESCNFDINRNFLFAGDWMKPYHTAVTDLLNQDLPILVYAGDKDFICNWLGNKAWTDVLPWKYDEEFASQKVRNWTASITDEVAGEVKSYKHFTYLRVFNGGHMVPFDVPENALSMVNEWIHGGFSL
In the case of B1, the L-Ala-L-Gln production rate [5] is reported as 0.0257 mM/min and the “Ratio … per enzyme unit weight” value [5] is reported as 0.0191.

B2: Papain: thiol endopeptidase described in EP 359399B1, purified enzyme manufactured by Sigma (protein, UniProt P00784 134-345, looked up)
Papain: IPEYVDWRQKGAVTPVKNQGSCGSCWAFSAVVTIEGIIKIRTGNLNEYSEQELLDCDRRSYGCNGGYPWSALQLVAQYGIHYRNTYPYEGVQRYCRSREKGPYAAKTDGVRQVQPYNEGALLYSIANQPVSVVLEAAGKDFQLYRGGIFVGPCGNKVDHAVAAVGYGPNYILIKNSWGTGWGENGYIRIKRGTGNSYGVCGLYTSSFYPVKN
In the case of B2, the L-Ala-L-Gln production rate [5] is reported as 0.0106 mM/min and the “Ratio … per enzyme unit weight” value [5] is reported as 0.0021.
